Source: patent US20150105252A1, “SUBSTITUTED PYRAZOLES AS HERBICIDES” (E I DU PONT DE NEMOURS AND COMPANY, priority 2013, published 2015)

Legend:
field violet = assay: Test D preemergence; assay type: in vivo, Viola arvensis; details: scale 0 to 100
Description: (§1) Seeds of plant species selected from bluegrass (annual bluegrass, Poa annua), blackgrass (Alopecurus myosuroides), canarygrass (littleseed canarygrass, Phalaris minor), chickweed (common chickweed, Stellaria media), galium (catchweed bedstraw, Galium aparine), bromegrass, downy (downy bromegrass, Bromus tectorum), field poppy (Papaver rhoeas), field violet (Viola arvensis), foxtail, green (green foxtail, Setaria viridis), deadnettle (henbit deadnettle, Lamium amplexicaule), ryegrass, Italian (Italian ryegrass, Lolium multiflorum), kochia (Kochia scoparia), lambsquarters (Chenopodium album), oilseed rape (Brassica napus), pigweed (redroot pigweed, Amaranthus retroflexus), chamomile (scentless chamomile, Matricaria inodora), speedwell (bird's-eye speedwell, Veronica persica), barley, spring (spring barley, Hordeum vulgare), wheat, spring (spring wheat, Triticum aestivum), buckwheat, wild (wild buckwheat, Polygonum convolvulus), mustard, wild (wild mustard, Sinapis arvensis), oat, wild (wild oat, Avena fatua), radish, wild (wild radish, Raphanus raphanistrum), windgrass (Apera spica-venti), Russian thistle (Salsola kali), barley, winter (winter barley, Hordeum vulgare), and wheat, winter (winter wheat, Triticum aestivum) were planted into a silt loam soil and treated preemergence with test chemicals formulated in a non-phytotoxic solvent mixture which included a surfactant.
(§2) At the same time, these species were planted in pots containing Redi-Earth® planting medium (Scotts Company, 14111 Scottslawn Road, Marysville, Ohio 43041) comprising spaghnum peat moss, vermiculite, wetting agent and starter nutrients and treated with postemergence applications of the test chemicals formulated in the same manner. Plants ranged in height from 2 to 18 cm (1- to 4-leaf stage). Treated plants and controls were maintained in a controlled growth environment for 14 to 21 days after which time all species were compared to controls and visually evaluated. Plant response ratings, summarized in Table D, are based on a scale of 0 to 100 where 0 is no effect and 100 is complete control. A dash (-) response means no test result.

kochia [1] = assay: Test D preemergence; assay type: in vivo, Kochia scoparia; details: scale 0 to 100
Description: as §1, §2

lambsquarters = assay: Test D preemergence; assay type: in vivo, Chenopodium album; details: scale 0 to 100
Description: as §1, §2

speedwell = assay: Test D preemergence; assay type: in vivo, Veronica persica; details: scale 0 to 100
Description: as §1, §2

barley, spring = assay: Test D preemergence; assay type: in vivo, Hordeum vulgare; details: scale 0 to 100
Description: as §1, §2

barley, winter = assay: Test D preemergence; assay type: in vivo, Hordeum vulgare; details: scale 0 to 100
Description: as §1, §2

bluegrass = assay: Test D postemergence; assay type: in vivo, Poa annua; details: scale 0 to 100
Description: as §1, §2

field poppy = assay: Test D postemergence; assay type: in vivo, Papaver rhoeas; details: scale 0 to 100
Description: as §1, §2

deadnettle = assay: Test D postemergence; assay type: in vivo, Lamium amplexicaule; details: scale 0 to 100
Description: as §1, §2

kochia [2] = assay: Test D postemergence; assay type: in vivo, Kochia scoparia; details: scale 0 to 100
Description: as §1, §2

chamomile = assay: Test D postemergence; assay type: in vivo, Matricaria inodora; details: scale 0 to 100
Description: as §1, §2

crabgrass, Brazil = assay: Test F preemergence; assay type: in vivo, Digitaria horizontalis
Description: (§3) Seeds of plant species selected from corn (Zea mays), soybean (Glycine max), velvetleaf (Abutilon theophrasti), lambsquarters (Chenopodium album), wild poinsettia (Euphorbia heterophylla), pigweed, palmer (palmer pigweed, Amaranthus palmeri), common waterhemp (Amaranthus rudis), surinam grass (Brachiaria decumbens), large crabgrass (Digitaria sanguinalis), crabgrass, Brazil (Brazilian crabgrass, Digitaria horizontalis), fall panicum (Panicum dichotomiflorum), giant foxtail (Setaria faberii), green foxtail (Setaria viridis), goosegrass (Eleusine indica), johnsongrass (Sorghum halepense), common ragweed (Ambrosia elation), barnyardgrass (Echinochloa crus-galli), southern sandbur (Cenchrus echinatus), arrowleaf sida (Sida rhombifolia), Italian ryegrass (Lolium multiflorum), dayflower, VA (Virginia (VA) dayflower, Commelina virginica), field bindweed (Convolvulus arvensis), cocklebur (common cocklebur, Xanthium strumarium), morningglory (Ipomoea coccinea), nightshade (eastern black nightshade, Solanum ptycanthum), kochia (Kochia scoparia), yellow nutsedge (Cyperus esculentus), and hairy beggarticks (Bidens pilosa), were planted into a silt loam soil and treated preemergence with test chemicals formulated in a non-phytotoxic solvent mixture which included a surfactant.
(§4) At the same time, plants from these crop and weed species and also horseweed (Canada horseweed, Conyza canadensis), smartweed (ladysthumb smartweed, Polygonum persicaria), waterhemp_RES1, (ALS & Triazine resistant common waterhemp, Amaranthus rudis), and waterhemp_RES2, (ALS & HPPD resistant common waterhemp, Amaranthus rudis) were treated with postemergence applications of test chemicals formulated in the same manner. Plants ranged in height from 2 to 18 cm for postemergence treatments (1- to 4-leaf stage). Treated plants and controls were maintained in a greenhouse for 14 to 21 days, after which time all species were compared to controls and visually evaluated. Plant response ratings, summarized in Table F, are based on a scale of 0 to 100 where 0 is no effect and 100 is complete control. A dash (-) response means no test result.

morningglory = assay: Test F preemergence; assay type: in vivo, Ipomoea coccinea
Description: as §3, §4

kochia [3] = assay: Test F preemergence; assay type: in vivo, Kochia scoparia
Description: as §3, §4

[4] = Preemergence, 31 g ai/ha, scale 0 to 100
[5] = Preemergence, 62 g ai/ha, scale 0 to 100
[6] = Preemergence, 125 g ai/ha, scale 0 to 100
[7] = preemergence, 8 g ai/ha, scale 0 to 100, 100 is complete control
[8] = preemergence, 16 g ai/ha, scale 0 to 100, 100 is complete control

**Q.** How did the “Plant response rating, Field Violet” value (field violet; 31 g ai/ha) turn out when `CCc1cc(C(=O)NC(C)C)nn1Cc1ccnc(C(F)(F)F)c1` [Compound 103] was run?
**A.** 95

**Q.** And the “Plant response rating, Field Violet” value (field violet; 62 g ai/ha)?
**A.** 100

**Q.** What about the “Plant response rating, Field Violet” value (field violet; 125 g ai/ha) of the same compound?
**A.** 100

**Q.** What about the “Plant response rating, Field Violet” value (field violet; 250 g ai/ha) of the same compound?
**A.** 100

**Q.** And the “Plant response rating, Kochia” value (kochia [1]; 31 g ai/ha)?
**A.** 10

**Q.** What about the “Plant response rating, Kochia” value (kochia [1]; 62 g ai/ha) of the same compound?
**A.** 65

**Q.** What about the “Plant response rating, Kochia” value (kochia [1]; 125 g ai/ha) of the same compound?
**A.** 85

**Q.** And the “Plant response rating, Kochia” value (kochia [1]; 250 g ai/ha)?
**A.** 100

**Q.** What about the “Plant response rating, Lambsquarters” value (lambsquarters; 31 g ai/ha) of the same compound?
**A.** 65

**Q.** And the “Plant response rating, Lambsquarters” value (lambsquarters; 62 g ai/ha)?
**A.** 70

**Q.** And the “Plant response rating, Lambsquarters” value (lambsquarters; 125 g ai/ha)?
**A.** 100

**Q.** And the “Plant response rating, Lambsquarters” value (lambsquarters; 250 g ai/ha)?
**A.** 100

**Q.** What about the “Plant response rating, Speedwell” value (speedwell; 31 g ai/ha) of the same compound?
**A.** 70

**Q.** What about the “Plant response rating, Speedwell” value (speedwell; 62 g ai/ha) of the same compound?
**A.** 100

**Q.** And the “Plant response rating, Speedwell” value (speedwell; 125 g ai/ha)?
**A.** 100

**Q.** What about the “Plant response rating, Speedwell” value (speedwell; 250 g ai/ha) of the same compound?
**A.** 100

**Q.** What about the “Plant response rating, Barley, Spring” value (barley, spring; 31 g ai/ha) of the same compound?
**A.** 15

**Q.** And the “Plant response rating, Barley, Spring” value (barley, spring; 62 g ai/ha)?
**A.** 35

**Q.** What about the “Plant response rating, Barley, Spring” value (barley, spring; 125 g ai/ha) of the same compound?
**A.** 80

**Q.** What about the “Plant response rating, Barley, Spring” value (barley, spring; 250 g ai/ha) of the same compound?
**A.** 100

**Q.** What about the “Plant response rating, Barley, Winter” value (barley, winter; 31 g ai/ha) of the same compound?
**A.** 0

**Q.** And the “Plant response rating, Barley, Winter” value (barley, winter; 62 g ai/ha)?
**A.** 35

**Q.** What about the “Plant response rating, Barley, Winter” value (barley, winter; 125 g ai/ha) of the same compound?
**A.** 60

**Q.** What about the “Plant response rating, Barley, Winter” value (barley, winter; 250 g ai/ha) of the same compound?
**A.** 85

**Q.** What about the “Bluegrass plant response rating” value (bluegrass; Postemergence, 31 g ai/ha) of the same compound?
**A.** 10

**Q.** And the “Bluegrass plant response rating” value (bluegrass; Postemergence, 125 g ai/ha)?
**A.** 20

**Q.** What about the “Bluegrass plant response rating” value (bluegrass; Postemergence, 250 g ai/ha) of the same compound?
**A.** 30

**Q.** What about the “Bluegrass plant response rating” value (bluegrass; postemergence, 62 g ai/ha) of the same compound?
**A.** 25

**Q.** What about the “Field Poppy plant response rating” value (field poppy; Postemergence, 31 g ai/ha) of the same compound?
**A.** 40

**Q.** What about the “Field Poppy plant response rating” value (field poppy; Postemergence, 125 g ai/ha) of the same compound?
**A.** 60

**Q.** What about the “Field Poppy plant response rating” value (field poppy; Postemergence, 250 g ai/ha) of the same compound?
**A.** 70

**Q.** And the “Field Poppy plant response rating” value (field poppy; postemergence, 62 g ai/ha)?
**A.** 55

**Q.** What about the “Deadnettle plant response rating” value (deadnettle; Postemergence, 31 g ai/ha) of the same compound?
**A.** 20

**Q.** And the “Deadnettle plant response rating” value (deadnettle; Postemergence, 125 g ai/ha)?
**A.** 25

**Q.** What about the “Deadnettle plant response rating” value (deadnettle; Postemergence, 250 g ai/ha) of the same compound?
**A.** 30

**Q.** And the “Deadnettle plant response rating” value (deadnettle; postemergence, 62 g ai/ha)?
**A.** 25

**Q.** What about the “Kochia plant response rating” value (kochia [2]; Postemergence, 31 g ai/ha) of the same compound?
**A.** 60

**Q.** What about the “Kochia plant response rating” value (kochia [2]; Postemergence, 125 g ai/ha) of the same compound?
**A.** 75

**Q.** And the “Kochia plant response rating” value (kochia [2]; Postemergence, 250 g ai/ha)?
**A.** 75

**Q.** And the “Kochia plant response rating” value (kochia [2]; postemergence, 62 g ai/ha)?
**A.** 65

**Q.** What about the “Chamomile plant response rating” value (chamomile; Postemergence, 31 g ai/ha) of the same compound?
**A.** 10

**Q.** What about the “Chamomile plant response rating” value (chamomile; Postemergence, 125 g ai/ha) of the same compound?
**A.** 30

**Q.** What about the “Chamomile plant response rating” value (chamomile; Postemergence, 250 g ai/ha) of the same compound?
**A.** 60

**Q.** And the “Chamomile plant response rating” value (chamomile; postemergence, 62 g ai/ha)?
**A.** 30

**Q.** What does the source list for `CCOc1cc(C(=O)NCC(F)(F)F)nn1Cc1ccnc(C(F)(F)F)c1` [Compound 104]?
**A.** Plant response rating, Crabgrass, Brazil (crabgrass, Brazil; [4]): 95; Plant response rating, Crabgrass, Brazil (crabgrass, Brazil; [5]): 100; Plant response rating, Crabgrass, Brazil (crabgrass, Brazil; [6]): 100; Plant response rating, Crabgrass, Brazil (crabgrass, Brazil; [7]): 5; Plant response rating, Crabgrass, Brazil (crabgrass, Brazil; [8]): 10; Plant response rating, Morningglory (morningglory; [4]): 70; Plant response rating, Morningglory (morningglory; [5]): 80; Plant response rating, Morningglory (morningglory; [6]): 100; Plant response rating, Morningglory (morningglory; [7]): 0; Plant response rating, Morningglory (morningglory; [8]): 0; Plant response rating, Kochia (kochia [3]; [4]): 25; Plant response rating, Kochia (kochia [3]; [5]): 100; Plant response rating, Kochia (kochia [3]; [6]): 100; Plant response rating, Kochia (kochia [3]; [7]): 0

**Q.** For `CCNC(=O)c1cc(CCCl)n(Cc2ccnc(C(F)(F)F)c2)n1` [Compound 179], which “Plant response rating, Crabgrass, Brazil” value (crabgrass, Brazil; [4]) is on record?
**A.** 75

**Q.** And the “Plant response rating, Crabgrass, Brazil” value (crabgrass, Brazil; [5])?
**A.** 100

**Q.** What about the “Plant response rating, Crabgrass, Brazil” value (crabgrass, Brazil; [6]) of the same compound?
**A.** 100

**Q.** What about the “Plant response rating, Crabgrass, Brazil” value (crabgrass, Brazil; [7]) of the same compound?
**A.** 0

**Q.** What about the “Plant response rating, Morningglory” value (morningglory; [4]) of the same compound?
**A.** 40

**Q.** What about the “Plant response rating, Morningglory” value (morningglory; [5]) of the same compound?
**A.** 60

**Q.** What about the “Plant response rating, Morningglory” value (morningglory; [6]) of the same compound?
**A.** 70

**Q.** What about the “Plant response rating, Morningglory” value (morningglory; [7]) of the same compound?
**A.** 0

**Q.** And the “Plant response rating, Kochia” value (kochia [3]; [4])?
**A.** 30

**Q.** What about the “Plant response rating, Kochia” value (kochia [3]; [5]) of the same compound?
**A.** 35

**Q.** What about the “Plant response rating, Kochia” value (kochia [3]; [6]) of the same compound?
**A.** 90

**Q.** And the “Plant response rating, Kochia” value (kochia [3]; [7])?
**A.** 0
